PMC11480411, “Mucosal sugars delineate pyrazine vs pyrazinone autoinducer signaling in Klebsiella oxytoca” (Nature Communications, 2024)

What was measured:
Assay in all cases: PRESTO-Tango GPCR screen
Format in all cases: cell-based
Details in all cases: 100 µM
PTGER1 = target: T1, PTGER1 (Homo sapiens, UniProt P34995)
T1 construct: purchased PRESTO-Tango GPCR kit (Roth lab / Addgene)
Experimental: (§1) The PRESTO-Tango analyses were performed as previously published. Briefly, HTLA cells, a HEK293 cell line that stably expresses β-arrestin-TEV and tTA-Luciferase (a kind gift from Gilad Barnea, Brown University), were plated in 96-well tissue culture plates (Eppendorf) in DMEM containing 10% FBS and 1% Penicillin/Streptomycin. One day after plating (after reaching approximately 90% confluence), 200 ng per well GPCR-Tango plasmids[37] in 20 μL DMEM were individually mixed with 400 ng polyethylenimine (Polysciences) in an equal volume of DMEM and incubated for 20 min at room temperature before adding the transfection mixture to the HTLA cells. 16-24 h after transfection, medium was replaced with 180 μL fresh DMEM containing 1% Penicillin/Streptomycin and 10 mM HEPES and 20 μL of 3 or 3-Homo to reach a final concentration of 100 μM. Supernatants were aspirated 20 h after stimulation and 50 μl per well of Bright-Glo solution (Promega) diluted 20-fold with PBS containing 20 mM HEPES was added into each well. After 15 min incubation at room temperature, luminescence was quantified using a Spectramax i3x microplate reader (Molecular Devices). Activation fold for each sample was calculated by dividing relative luminescence units (RLU) for each condition by RLUs from PBS control. Dose response curves of each chemical were performed in a similar way with varying the ligand concentration from 10^−4 M to 10^−15 M.

HTR2A = target: T2, HTR2A (Homo sapiens, UniProt P28223)
T2 construct: purchased PRESTO-Tango GPCR kit (Roth lab / Addgene)
Experimental: as §1

MTNR1A = target: T3, MTNR1A (Homo sapiens, UniProt P48039)
T3 construct: purchased PRESTO-Tango GPCR kit (Roth lab / Addgene)
Experimental: as §1

ADRB3 = target: T4, ADRB3 (Homo sapiens, UniProt P13945)
T4 construct: purchased PRESTO-Tango GPCR kit (Roth lab / Addgene)
Experimental: as §1

GPR133 = target: T5, GPR133 (Homo sapiens, UniProt Q6QNK2)
T5 construct: purchased PRESTO-Tango GPCR kit (Roth lab / Addgene)
Experimental: as §1

GPR124 = target: T6, GPR124 (Homo sapiens, UniProt Q96PE1)
T6 construct: purchased PRESTO-Tango GPCR kit (Roth lab / Addgene)
Experimental: as §1

TACR3 = target: T7, TACR3 (Homo sapiens, UniProt P29371)
T7 construct: purchased PRESTO-Tango GPCR kit (Roth lab / Addgene)
Experimental: as §1

PTH2R = target: T8, PTH2R (Homo sapiens, UniProt P49190)
T8 construct: purchased PRESTO-Tango GPCR kit (Roth lab / Addgene)
Experimental: as §1

PTGFR = target: T9, PTGFR (Homo sapiens, UniProt P43088)
T9 construct: purchased PRESTO-Tango GPCR kit (Roth lab / Addgene)
Experimental: as §1

PTGIR = target: T10, PTGIR (Homo sapiens, UniProt P43119)
T10 construct: purchased PRESTO-Tango GPCR kit (Roth lab / Addgene)
Experimental: as §1

TAAR2 = target: T11, TAAR2 (Homo sapiens, UniProt Q9P1P5)
T11 construct: purchased PRESTO-Tango GPCR kit (Roth lab / Addgene)
Experimental: as §1

LTB4R = target: T12, LTB4R (Homo sapiens, UniProt Q15722)
T12 construct: purchased PRESTO-Tango GPCR kit (Roth lab / Addgene)
Experimental: as §1

GPR65 = target: T13, GPR65 (Homo sapiens, UniProt Q8IYL9)
T13 construct: purchased PRESTO-Tango GPCR kit (Roth lab / Addgene)
Experimental: as §1

AVPR1A = target: T14, AVPR1A (Homo sapiens, UniProt P37288)
T14 construct: purchased PRESTO-Tango GPCR kit (Roth lab / Addgene)
Experimental: as §1

GPR151 = target: T15, GPR151 (Homo sapiens, UniProt Q8TDV0)
T15 construct: purchased PRESTO-Tango GPCR kit (Roth lab / Addgene)
Experimental: as §1

HTR1F = target: T16, HTR1F (Homo sapiens, UniProt P30939)
T16 construct: purchased PRESTO-Tango GPCR kit (Roth lab / Addgene)
Experimental: as §1

GPR88 = target: T17, GPR88 (Homo sapiens, UniProt Q9GZN0)
T17 construct: purchased PRESTO-Tango GPCR kit (Roth lab / Addgene)
Experimental: as §1

GPR19 = target: T18, GPR19 (Homo sapiens, UniProt Q15760)
T18 construct: purchased PRESTO-Tango GPCR kit (Roth lab / Addgene)
Experimental: as §1

GPRC5D = target: T19, GPRC5D (Homo sapiens, UniProt Q9NZD1)
T19 construct: purchased PRESTO-Tango GPCR kit (Roth lab / Addgene)
Experimental: as §1

GPR183 = target: T20, GPR183 (Homo sapiens, UniProt P32249)
T20 construct: purchased PRESTO-Tango GPCR kit (Roth lab / Addgene)
Experimental: as §1

GPR153 = target: T21, GPR153 (Homo sapiens, UniProt Q6NV75)
T21 construct: purchased PRESTO-Tango GPCR kit (Roth lab / Addgene)
Experimental: as §1

NPS = target: T22, NPS (Homo sapiens, UniProt Q6W5P4)
T22 construct: purchased PRESTO-Tango GPCR kit (Roth lab / Addgene)
Experimental: as §1

GPR39 = target: T23, GPR39 (Homo sapiens, UniProt O43194)
T23 construct: purchased PRESTO-Tango GPCR kit (Roth lab / Addgene)
Experimental: as §1

CCR4 = target: T24, CCR4 (Homo sapiens, UniProt P51679)
T24 construct: purchased PRESTO-Tango GPCR kit (Roth lab / Addgene)
Experimental: as §1

GPR114 = target: T25, GPR114 (Homo sapiens, UniProt Q8IZF4)
T25 construct: purchased PRESTO-Tango GPCR kit (Roth lab / Addgene)
Experimental: as §1

GNRHR = target: T26, GNRHR (Homo sapiens, UniProt P30968)
T26 construct: purchased PRESTO-Tango GPCR kit (Roth lab / Addgene)
Experimental: as §1

GPR62 = target: T27, GPR62 (Homo sapiens, UniProt Q9BZJ7)
T27 construct: purchased PRESTO-Tango GPCR kit (Roth lab / Addgene)
Experimental: as §1

NMBR = target: T28, NMBR (Homo sapiens, UniProt P28336)
T28 construct: purchased PRESTO-Tango GPCR kit (Roth lab / Addgene)
Experimental: as §1

GPR144 = target: T29, GPR144 (Homo sapiens, UniProt Q7Z7M1)
T29 construct: purchased PRESTO-Tango GPCR kit (Roth lab / Addgene)
Experimental: as §1

HCA1 = target: T30, HCA1 (Homo sapiens, UniProt Q9BXC0)
T30 construct: purchased PRESTO-Tango GPCR kit (Roth lab / Addgene)
Experimental: as §1

MRGPRD = target: T31, MRGPRD (Homo sapiens, UniProt Q8TDS7)
T31 construct: purchased PRESTO-Tango GPCR kit (Roth lab / Addgene)
Experimental: as §1

GRM6 = target: T32, GRM6 (Homo sapiens, UniProt O15303)
T32 construct: purchased PRESTO-Tango GPCR kit (Roth lab / Addgene)
Experimental: as §1

BDKBR2 = target: T33, BDKBR2 (Homo sapiens, UniProt P30411)
T33 construct: purchased PRESTO-Tango GPCR kit (Roth lab / Addgene)
Experimental: as §1

GPER = target: T34, GPER (Homo sapiens, UniProt Q99527)
T34 construct: purchased PRESTO-Tango GPCR kit (Roth lab / Addgene)
Experimental: as §1

C3AR1 = target: T35, C3AR1 (Homo sapiens, UniProt Q16581)
T35 construct: purchased PRESTO-Tango GPCR kit (Roth lab / Addgene)
Experimental: as §1

T20 sequence (P32249 whole entry): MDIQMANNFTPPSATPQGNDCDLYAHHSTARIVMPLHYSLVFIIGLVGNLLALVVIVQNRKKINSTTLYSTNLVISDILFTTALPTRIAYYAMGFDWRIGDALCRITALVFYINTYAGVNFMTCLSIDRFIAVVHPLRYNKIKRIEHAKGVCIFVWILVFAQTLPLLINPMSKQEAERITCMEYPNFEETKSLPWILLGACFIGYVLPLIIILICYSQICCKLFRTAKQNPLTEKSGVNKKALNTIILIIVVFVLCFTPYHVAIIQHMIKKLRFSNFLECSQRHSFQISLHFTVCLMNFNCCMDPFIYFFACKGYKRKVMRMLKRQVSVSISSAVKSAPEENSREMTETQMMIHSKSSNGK
T14 sequence (P37288 whole entry): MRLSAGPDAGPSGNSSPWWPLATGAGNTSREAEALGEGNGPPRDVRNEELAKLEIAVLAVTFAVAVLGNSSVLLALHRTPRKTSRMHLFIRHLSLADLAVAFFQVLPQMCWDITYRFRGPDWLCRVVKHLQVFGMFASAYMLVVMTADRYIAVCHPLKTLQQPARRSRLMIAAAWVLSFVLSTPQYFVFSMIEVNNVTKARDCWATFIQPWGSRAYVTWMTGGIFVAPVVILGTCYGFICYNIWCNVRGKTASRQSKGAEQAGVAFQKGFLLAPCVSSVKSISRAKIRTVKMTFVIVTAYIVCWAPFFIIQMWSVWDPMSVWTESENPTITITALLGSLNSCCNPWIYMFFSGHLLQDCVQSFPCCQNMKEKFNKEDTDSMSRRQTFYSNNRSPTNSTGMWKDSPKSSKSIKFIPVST
T2 sequence (P28223 whole entry): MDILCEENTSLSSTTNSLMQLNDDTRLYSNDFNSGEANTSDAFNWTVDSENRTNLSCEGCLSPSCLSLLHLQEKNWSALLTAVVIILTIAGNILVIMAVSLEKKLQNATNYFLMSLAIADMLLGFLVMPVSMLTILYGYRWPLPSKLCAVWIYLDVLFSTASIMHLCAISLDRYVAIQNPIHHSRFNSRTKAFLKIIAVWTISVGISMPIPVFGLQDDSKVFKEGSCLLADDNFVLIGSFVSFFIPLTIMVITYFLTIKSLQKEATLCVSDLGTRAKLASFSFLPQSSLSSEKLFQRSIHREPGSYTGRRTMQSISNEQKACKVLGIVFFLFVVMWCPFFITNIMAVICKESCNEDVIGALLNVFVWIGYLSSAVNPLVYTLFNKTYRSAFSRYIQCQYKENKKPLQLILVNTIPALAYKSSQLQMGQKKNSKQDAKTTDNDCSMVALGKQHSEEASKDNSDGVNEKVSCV
T26 sequence (P30968 whole entry): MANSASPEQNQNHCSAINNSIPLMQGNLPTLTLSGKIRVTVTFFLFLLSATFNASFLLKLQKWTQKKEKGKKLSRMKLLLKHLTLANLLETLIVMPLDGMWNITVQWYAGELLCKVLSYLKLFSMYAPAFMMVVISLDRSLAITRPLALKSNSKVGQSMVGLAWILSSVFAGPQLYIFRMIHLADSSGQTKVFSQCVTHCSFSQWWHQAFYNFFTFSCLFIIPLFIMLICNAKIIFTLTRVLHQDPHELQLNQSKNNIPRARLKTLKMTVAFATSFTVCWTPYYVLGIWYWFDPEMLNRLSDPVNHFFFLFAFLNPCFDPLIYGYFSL
T9 sequence (P43088 whole entry): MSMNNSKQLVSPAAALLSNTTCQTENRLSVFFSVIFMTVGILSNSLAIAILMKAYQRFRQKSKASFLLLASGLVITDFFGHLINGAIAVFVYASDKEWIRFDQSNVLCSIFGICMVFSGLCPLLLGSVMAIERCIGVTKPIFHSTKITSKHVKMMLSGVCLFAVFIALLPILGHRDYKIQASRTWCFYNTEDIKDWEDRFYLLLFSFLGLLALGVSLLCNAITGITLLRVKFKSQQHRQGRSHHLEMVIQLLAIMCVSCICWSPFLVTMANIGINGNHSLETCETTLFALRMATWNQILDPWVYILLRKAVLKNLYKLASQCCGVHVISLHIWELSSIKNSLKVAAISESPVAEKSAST
T28 sequence (P28336 whole entry): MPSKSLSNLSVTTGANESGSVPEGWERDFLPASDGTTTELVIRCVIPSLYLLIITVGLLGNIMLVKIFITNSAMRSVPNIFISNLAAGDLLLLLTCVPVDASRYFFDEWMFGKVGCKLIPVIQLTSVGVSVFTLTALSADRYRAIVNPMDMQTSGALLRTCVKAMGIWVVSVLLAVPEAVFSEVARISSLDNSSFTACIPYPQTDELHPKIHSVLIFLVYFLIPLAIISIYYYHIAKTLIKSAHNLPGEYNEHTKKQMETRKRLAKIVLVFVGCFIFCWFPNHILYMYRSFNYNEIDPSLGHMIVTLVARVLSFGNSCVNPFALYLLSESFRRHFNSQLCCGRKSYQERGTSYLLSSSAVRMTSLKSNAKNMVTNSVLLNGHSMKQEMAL
T23 sequence (O43194 whole entry): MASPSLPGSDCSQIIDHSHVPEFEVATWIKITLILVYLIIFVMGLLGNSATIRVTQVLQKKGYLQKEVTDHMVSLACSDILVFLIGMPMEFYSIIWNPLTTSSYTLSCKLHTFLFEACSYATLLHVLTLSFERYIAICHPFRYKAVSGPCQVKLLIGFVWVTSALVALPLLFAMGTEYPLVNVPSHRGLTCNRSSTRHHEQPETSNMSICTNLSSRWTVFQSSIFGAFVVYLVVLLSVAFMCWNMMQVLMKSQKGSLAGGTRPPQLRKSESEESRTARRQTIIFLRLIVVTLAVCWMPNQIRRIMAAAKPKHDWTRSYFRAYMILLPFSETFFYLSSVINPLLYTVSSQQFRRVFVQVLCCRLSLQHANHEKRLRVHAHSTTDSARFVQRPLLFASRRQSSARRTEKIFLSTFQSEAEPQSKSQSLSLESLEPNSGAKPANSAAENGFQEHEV
T31 sequence (Q8TDS7 whole entry): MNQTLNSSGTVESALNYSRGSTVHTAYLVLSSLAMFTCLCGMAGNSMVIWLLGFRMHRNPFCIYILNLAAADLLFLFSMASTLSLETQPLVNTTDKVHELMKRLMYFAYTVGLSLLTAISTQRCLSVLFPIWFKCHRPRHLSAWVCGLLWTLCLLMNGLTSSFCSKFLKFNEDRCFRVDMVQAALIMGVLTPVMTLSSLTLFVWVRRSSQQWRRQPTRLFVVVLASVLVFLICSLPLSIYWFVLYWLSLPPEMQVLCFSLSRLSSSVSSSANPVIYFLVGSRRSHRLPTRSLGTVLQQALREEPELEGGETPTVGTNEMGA
T12 sequence (Q15722 whole entry): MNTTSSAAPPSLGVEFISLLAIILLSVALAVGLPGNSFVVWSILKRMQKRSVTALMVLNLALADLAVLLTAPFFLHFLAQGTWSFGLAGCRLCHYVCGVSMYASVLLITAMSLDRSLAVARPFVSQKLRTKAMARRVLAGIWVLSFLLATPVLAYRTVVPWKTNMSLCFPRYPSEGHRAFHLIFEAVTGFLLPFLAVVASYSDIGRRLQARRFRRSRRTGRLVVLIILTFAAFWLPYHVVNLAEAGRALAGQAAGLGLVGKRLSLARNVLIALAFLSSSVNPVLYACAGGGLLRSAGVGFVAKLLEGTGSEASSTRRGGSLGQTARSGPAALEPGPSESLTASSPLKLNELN
T17 sequence (Q9GZN0 whole entry): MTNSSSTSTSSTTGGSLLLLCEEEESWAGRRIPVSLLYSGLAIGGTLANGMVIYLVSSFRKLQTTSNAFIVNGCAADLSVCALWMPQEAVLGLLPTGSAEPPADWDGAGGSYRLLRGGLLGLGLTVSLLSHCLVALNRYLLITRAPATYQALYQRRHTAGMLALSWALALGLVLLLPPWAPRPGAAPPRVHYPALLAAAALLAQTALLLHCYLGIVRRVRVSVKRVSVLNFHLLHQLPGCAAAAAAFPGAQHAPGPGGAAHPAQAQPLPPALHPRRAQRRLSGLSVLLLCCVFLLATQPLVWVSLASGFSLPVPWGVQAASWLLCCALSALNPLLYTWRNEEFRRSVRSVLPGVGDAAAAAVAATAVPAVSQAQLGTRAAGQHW
T27 sequence (Q9BZJ7 whole entry): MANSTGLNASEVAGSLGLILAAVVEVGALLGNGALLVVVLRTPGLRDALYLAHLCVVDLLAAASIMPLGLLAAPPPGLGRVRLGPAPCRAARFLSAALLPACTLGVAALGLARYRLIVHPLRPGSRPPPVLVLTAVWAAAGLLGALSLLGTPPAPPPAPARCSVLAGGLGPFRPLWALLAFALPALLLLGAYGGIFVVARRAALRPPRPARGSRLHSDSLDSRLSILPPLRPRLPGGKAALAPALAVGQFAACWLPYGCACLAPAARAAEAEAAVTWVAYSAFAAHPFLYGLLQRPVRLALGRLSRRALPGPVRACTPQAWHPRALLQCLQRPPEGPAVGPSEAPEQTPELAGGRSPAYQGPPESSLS
T22 sequence (Q6W5P4 whole entry): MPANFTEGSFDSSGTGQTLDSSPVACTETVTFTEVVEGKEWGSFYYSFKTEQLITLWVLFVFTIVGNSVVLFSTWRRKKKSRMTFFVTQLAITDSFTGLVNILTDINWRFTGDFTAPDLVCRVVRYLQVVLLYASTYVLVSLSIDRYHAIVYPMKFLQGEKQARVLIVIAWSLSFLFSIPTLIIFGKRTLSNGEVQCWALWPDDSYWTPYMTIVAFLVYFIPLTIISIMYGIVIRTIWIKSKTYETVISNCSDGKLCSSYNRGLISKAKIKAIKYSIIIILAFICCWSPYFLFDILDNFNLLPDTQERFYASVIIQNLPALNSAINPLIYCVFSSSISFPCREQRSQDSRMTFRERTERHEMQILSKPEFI
T13 sequence (Q8IYL9 whole entry): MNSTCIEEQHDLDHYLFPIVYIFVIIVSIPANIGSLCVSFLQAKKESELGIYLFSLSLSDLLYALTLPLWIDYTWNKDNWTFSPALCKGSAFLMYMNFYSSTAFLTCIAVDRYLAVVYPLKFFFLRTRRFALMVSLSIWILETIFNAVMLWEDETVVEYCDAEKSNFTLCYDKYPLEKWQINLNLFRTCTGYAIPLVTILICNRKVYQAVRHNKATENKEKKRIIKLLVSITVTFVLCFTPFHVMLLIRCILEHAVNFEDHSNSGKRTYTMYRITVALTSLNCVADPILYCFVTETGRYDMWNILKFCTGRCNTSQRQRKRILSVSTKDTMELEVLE

Row | SMILES | GPCR activation (heatmap value) (PTGER1) | GPCR activation (heatmap value) (HTR2A) | GPCR activation (heatmap value) (MTNR1A) | GPCR activation (heatmap value) (ADRB3) | GPCR activation (heatmap value) (GPR133) | GPCR activation (heatmap value) (GPR124) | GPCR activation (heatmap value) (TACR3) | GPCR activation (heatmap value) (PTH2R) | GPCR activation (heatmap value) (PTGFR) | GPCR activation (heatmap value) (PTGIR) | GPCR activation (heatmap value) (TAAR2) | GPCR activation (heatmap value) (LTB4R) | GPCR activation (heatmap value) (GPR65) | GPCR activation (heatmap value) (AVPR1A) | GPCR activation (heatmap value) (GPR151) | GPCR activation (heatmap value) (HTR1F) | GPCR activation (heatmap value) (GPR88) | GPCR activation (heatmap value) (GPR19) | GPCR activation (heatmap value) (GPRC5D) | GPCR activation (heatmap value) (GPR183) | further results
1 | CC(C)Cc1ncc(CCCCNC(=N)N)[nH]c1=O [3-Homo] | 0.737 | -0.1726 | -0.06354 | -1.912 | -0.3215 | -0.5918 | -0.1118 | -0.1142 | 0.3992 | -0.205 | 0.3187 | 0.1103 | 0.1433 | 0.8531 | 0.4419 | -0.1727 | -0.7293 | -0.2115 | 0.05555 | -0.6232 | GPCR activation (heatmap value) (GPR153): -0.4672; GPCR activation (heatmap value) (NPS): -0.3425; GPCR activation (heatmap value) (GPR39): 0.5643; GPCR activation (heatmap value) (CCR4): 0.4296; GPCR activation (heatmap value) (GPR114): 0.07141; GPCR activation (heatmap value) (GNRHR): -0.5775; GPCR activation (heatmap value) (GPR62): 0.1938; GPCR activation (heatmap value) (NMBR): 0.06446; GPCR activation (heatmap value) (GPR144): -0.2529; GPCR activation (heatmap value) (HCA1): -0.6134; GPCR activation (heatmap value) (MRGPRD): 0.2698; GPCR activation (heatmap value) (GRM6): -0.3175; GPCR activation (heatmap value) (BDKBR2): -0.09391; GPCR activation (heatmap value) (GPER): -0.07314; GPCR activation (heatmap value) (C3AR1): -0.001199
2 | CC(C)Cc1ncc(CCCNC(=N)N)[nH]c1=O [compound 3] | -0.585 | -0.2048 | 0.3857 | 0.7966 | -0.6324 | 0.8185 | -0.7714 | -0.2039 | 0.901 | 0.2177 | 0.1553 | -0.07274 | -0.2267 | 0.9724 | -0.03391 | 0.1369 | -0.2878 | -0.1336 | -1.121 | -0.9955 | GPCR activation (heatmap value) (GPR153): 0.1913; GPCR activation (heatmap value) (NPS): -0.7734; GPCR activation (heatmap value) (GPR39): 0.8238; GPCR activation (heatmap value) (CCR4): -0.299; GPCR activation (heatmap value) (GPR114): 0.003235; GPCR activation (heatmap value) (GNRHR): 0.3051; GPCR activation (heatmap value) (GPR62): 1.991; GPCR activation (heatmap value) (NMBR): 0.762; GPCR activation (heatmap value) (GPR144): 0.6653; GPCR activation (heatmap value) (HCA1): 0.05882; GPCR activation (heatmap value) (MRGPRD): -0.4298; GPCR activation (heatmap value) (GRM6): 0.6597; GPCR activation (heatmap value) (BDKBR2): -0.1686; GPCR activation (heatmap value) (GPER): 0.1603; GPCR activation (heatmap value) (C3AR1): -0.2058
